Results reported in patent US6627732B1, “Glutathione derivatives and their dosage forms” (Teijin Limited, priority 1998, dated 2003).

How the values were obtained:
[1] = system: HL-60 cells; test: HL-60 cell differentiation induction, NBT reducing activity, DMSO as solvent (Example 21); assay type: cell-based, human
Excerpt: In a manner similar to that in Example 20, the in vitro activity of the glutathione derivatives of Examples 4, 5, and 8, and Comparative Example 3 were compared.
(1) The differences from Example 20 were: First, since the glutathione derivatives of Examples and Comparative Examples used dimethyl sulfoxide (DMSO) as the solvent because of the solubility of the compounds, the system contained 0.1-0.3 (v/v)% DMSO instead of ethanol. […] This caused slight differences in the sensitivity in the test results of the glutathione derivative of Example 4. Furthermore, in Example 21, the differentiation induction on HL-60 cells into granulocytic cells in the coexistence of 9-cis-RA was only evaluated.

[2] = system: human leukemia cell HL-60; test: HL-60 cell differentiation induction, NBT reducing activity (Example 20); assay type: cell-based; conditions: 4 days
Description: Using the differentiation induction effect on the granulocytes or monocytes/macrophages obtained by culturing the human leukemia cell HL-60 in the presence of 9-cys-retinoic acid (9-cis-RA) or activated vitamin D3 (1α, 25(OH)2D3), and in the coexistence of the glutathione derivatives of Examples and the Comparative Examples of the present invention, the growth-promotion activity was tested.
(1) HL-60 cells used were purchased from the cell bank (Japanese Cancer Research Resource Bank, Cell No. JCRBOO85). In accordance with a standard method, the lyophilized cell stocks that were thawed before the start of the experiment and subcultured were used.
Subculturing was carried out by centrifuging (1500 rpm, 5 minutes) the cells in suspension culture and recovering and by diluting it in a fresh culture liquid at a concentration of about 1/100 (1 to 2×10^4 cells/ml). As the culture liquid, an RPMI 1640 medium containing 10% fetal bovine serum was used.
(2) The cells subcultured in (1) were recovered by centrifugation (1500 rpm, 5 minutes), and were dispersed in the culture liquid at 2×10^4 cells/ml, which were plated on a 24-well culture plate at 1 ml/well. To this system were added the glutathione derivatives of Example 4, Example 11, Comparative Example 1 and Comparative Example 2 and a differentiation induction substance (9-cis-RA or 1α, 25(OH)2D3). Thus, 1 μl per well each of an ethanol solution of the differentiation induction substances 9-cis-RA and 1α, 25(OH)2D3 were added at 5×10^−6 M and 2×10^−6 M, respectively. Then, 1 μl per well each of ethanol solutions of the glutathione derivatives at 1×10^−4 M to 1×10^−2 M was added. As the solvent treatment for the control, 1 μl of ethanol per well was added in stead of the glutathione derivative, and as the single treatment of glutathione derivatives, 1 μl of ethanol per well was added in stead of the differentiation induction substance. After culturing at 37° C. and 5% CO2 for 4 days, the cells were recovered by centrifugation (1500 rpm, 5 minutes).
(3) The measurement of a nitroblue tetrazolium (NBT) reducing activity which is often used for the evaluation of differentiation induction effects on monocytes/macrophages or granulocytic cells was carried out according to the following procedure. Thus, the cells recovered by centrifugation in (2) were suspended in a fresh culture medium, and then NBT was added thereto to […] and 12-O-tetradecanoyl phorbol-13-acetate to 100 nM. After incubating at 37° C. for 25 minutes, cytospin samples were prepared. After air drying, the cells were subjected to Kernechtrot stain, and 500 cells per sample were examined under alight microscope to determine the ratio of the NBT reduction activity-positive cells.
(4) The result of the experiment in which glutathione derivatives at 10^−7 to 10^−5 M were treated together with a differentiation induction substances is shown in Table 4. For a single treatment of each glutathione derivative up to 10^−5 M, no increases in the NBT reducing activity was observed. In a combined treatment of a glutathione derivative and a differentiation induction substance, an enhanced ratio of the NBT reduction activity-positive cells relative to the single treatment with a differentiation induction substance was observed depending on the concentration of the glutathione derivative. There were no major differences observed in the strength of effects between the glutathione derivatives of Examples 4 and 11 and Comparative Examples 1, and 2.

[3] = compound 3 × 10^−6 M in DMSO, Solvent control (EtOH - 0.1%)
[4] = compound 3 × 10^−6 M in DMSO, with 9-cis-RA (5 × 10^−9 M)
[5] = compound 3 × 10^−7 M in DMSO, Solvent control (EtOH - 0.1%)
[6] = compound 3 × 10^−7 M in DMSO, with 9-cis-RA (5 × 10^−9 M)
[7] = compound 3 × 10^−8 M in DMSO, Solvent control (EtOH - 0.1%)
[8] = compound 3 × 10^−8 M in DMSO, with 9-cis-RA (5 × 10^−9 M)
[9] = compound 10^−6 M in DMSO, Solvent control (EtOH - 0.1%)
[10] = compound 10^−6 M in DMSO, with 9-cis-RA (5 × 10^−9 M)
[11] = compound 10^−7 M in DMSO, Solvent control (EtOH - 0.1%)
[12] = compound 10^−7 M in DMSO, with 9-cis-RA (5 × 10^−9 M)
[13] = compound 10^−8 M in DMSO, Solvent control (EtOH - 0.1%)
[14] = compound 10^−8 M in DMSO, with 9-cis-RA (5 × 10^−9 M)

CCCCCCCCCCCCCCCCOC(=O)[C@H](CCC(=O)N[C@@H](CSCc1ccccc1)C(=O)N[C@@H](C(=O)OCC)c1ccccc1)NC(C)=O [Example 5, Ac-Glu(Cys(Bzl)-D-Phg-OEt)-O(Hexadecyl)]
Ratio of NBT reduction activity-positive cells [1, 3]: 0.2% | Ratio of NBT reduction activity-positive cells [1, 4]: 11.2% | Ratio of NBT reduction activity-positive cells [1, 5]: 0.7% | Ratio of NBT reduction activity-positive cells [1, 6]: 4.3% | Ratio of NBT reduction activity-positive cells [1, 7]: 0.7% | Ratio of NBT reduction activity-positive cells [1, 8]: 2.1% | Ratio of NBT reduction activity-positive cells [1, 9]: 0.3% | Ratio of NBT reduction activity-positive cells [1, 10]: 6.5% | Ratio of NBT reduction activity-positive cells [1, 11]: 0.9% | Ratio of NBT reduction activity-positive cells [1, 12]: 3.2% | Ratio of NBT reduction activity-positive cells [1, 13]: 0.3% | Ratio of NBT reduction activity-positive cells [1, 14]: 2.5%

CCCCCCCCCCCCCCCCOC(=O)[C@H](NC(=O)[C@H](CSCc1ccccc1)NC(=O)CC[C@H](N)C(=O)OCC)c1ccccc1.Cl [Example 8, Glu(Cys(Bzl)-D-Phg-O(Hexadecyl))-OEt Hydrochloride]
Ratio of NBT reduction activity-positive cells [1, 3]: 0.7% | Ratio of NBT reduction activity-positive cells [1, 4]: 16.9% | Ratio of NBT reduction activity-positive cells [1, 5]: 0.9% | Ratio of NBT reduction activity-positive cells [1, 6]: 4.7% | Ratio of NBT reduction activity-positive cells [1, 7]: 0.4% | Ratio of NBT reduction activity-positive cells [1, 8]: 3.2% | Ratio of NBT reduction activity-positive cells [1, 9]: 0.8% | Ratio of NBT reduction activity-positive cells [1, 10]: 8.8% | Ratio of NBT reduction activity-positive cells [1, 11]: 0.8% | Ratio of NBT reduction activity-positive cells [1, 12]: 4.2% | Ratio of NBT reduction activity-positive cells [1, 13]: 0.5% | Ratio of NBT reduction activity-positive cells [1, 14]: 2.9%

CCCCCCCCCCCCCCCCOC(=O)[C@H](NC(=O)[C@H](CSCc1ccccc1)NC(=O)CC[C@H](N)C(=O)O)c1ccccc1.Cl [Example 11, Glu(Cys(Bzl)-D-Phg-O(Hexadecyl))Hydrochloride]
Ratio of NBT reduction activity-positive cells ([2]; compound 10^−5 M, Solvent control (EtOH), no differentiation induction substance): 0.8% | Ratio of NBT reduction activity-positive cells ([2]; compound 10^−5 M, with 1α,25(OH)2D3 (2 × 10^−9 M)): 13.8% | Ratio of NBT reduction activity-positive cells ([2]; compound 10^−5 M, with 9-cis-RA (5 × 10^−9 M)): 19.8% | Ratio of NBT reduction activity-positive cells ([2]; compound 10^−6 M, Solvent control (EtOH), no differentiation induction substance): 0.2% | Ratio of NBT reduction activity-positive cells ([2]; compound 10^−6 M, with 1α,25(OH)2D3 (2 × 10^−9 M)): 4.8% | Ratio of NBT reduction activity-positive cells ([2]; compound 10^−6 M, with 9-cis-RA (5 × 10^−9 M)): 11.2% | Ratio of NBT reduction activity-positive cells ([2]; compound 10^−7 M, Solvent control (EtOH), no differentiation induction substance): 0.6% | Ratio of NBT reduction activity-positive cells ([2]; compound 10^−7 M, with 1α,25(OH)2D3 (2 × 10^−9 M)): 5.1% | Ratio of NBT reduction activity-positive cells ([2]; compound 10^−7 M, with 9-cis-RA (5 × 10^−9 M)): 8.8%
